Measured values reported in ChEMBL document CHEMBL3797190, “Development of 3,5-Dinitrobenzylsulfanyl-1,3,4-oxadiazoles and Thiadiazoles as Selective Antitubercular Agents Active Against Replicating and Nonreplicating Mycobacterium tuberculosis” (J Med Chem, 2016).
Converted amounts (≈) assume the structure as drawn.

Tests used:
Type in all cases: functional
[1] = tested on: Mycobacterium tuberculosis; assay: Antimycobacterial activity against Mycobacterium tuberculosis CNCTC My 331/88 after 14 days by microdilution method; settings: CNCTC My 331/88, 336 h
Mycobacterium avium [2] = assay: Antimycobacterial activity against Mycobacterium avium CNCTC My 330/88 after 14 days by microdilution method; settings: CNCTC My 330/88, 336 h
Mycobacterium kansasii [3] = assay: Antimycobacterial activity against Mycobacterium kansasii CNCTC My 235/80 after 14 days by microdilution method; settings: CNCTC My 235/80, 336 h
Mycobacterium kansasii [4] = assay: Antimycobacterial activity against Mycobacterium kansasii CNCTC My 6509/96 after 14 days by microdilution method; settings: CNCTC My 6509/96, 336 h
[5] = tested on: Mycobacterium tuberculosis; assay: Antimycobacterial activity against Mycobacterium tuberculosis CNCTC My 331/88 after 21 days by microdilution method; settings: CNCTC My 331/88, 504 h
Mycobacterium avium [6] = assay: Antimycobacterial activity against Mycobacterium avium CNCTC My 330/88 after 21 days by microdilution method; settings: CNCTC My 330/88, 504 h
Mycobacterium kansasii [7] = assay: Antimycobacterial activity against Mycobacterium kansasii CNCTC My 235/80 after 21 days by microdilution method; settings: CNCTC My 235/80, 504 h
Mycobacterium kansasii [8] = assay: Antimycobacterial activity against Mycobacterium kansasii CNCTC My 6509/96 after 21 days by microdilution method; settings: CNCTC My 6509/96, 504 h
Mycobacterium kansasii [9] = assay: Antimycobacterial activity against Mycobacterium kansasii CNCTC My 235/80 after 7 days by microdilution method; settings: CNCTC My 235/80, 168 h
Mycobacterium kansasii [10] = assay: Antimycobacterial activity against Mycobacterium kansasii CNCTC My 6509/96 after 7 days by microdilution method; settings: CNCTC My 6509/96, 168 h

Cc1ccc(-c2nnc(SCc3cc([N+](=O)[O-])cc(C(F)(F)F)c3)s2)cc1
MIC99 [1]: > 32 µM | MIC99 (Mycobacterium avium [2]): > 500 µM | MIC99 (Mycobacterium kansasii [3]): > 32 µM | MIC99 (Mycobacterium kansasii [4]): > 32 µM | MIC99 [5]: > 32 µM | MIC99 (Mycobacterium avium [6]): > 500 µM | MIC99 (Mycobacterium kansasii [7]): > 32 µM | MIC99 (Mycobacterium kansasii [8]): > 32 µM | MIC99 (Mycobacterium kansasii [9]): > 32 µM | MIC99 (Mycobacterium kansasii [10]): > 32 µM

O=[N+]([O-])c1cc(CSc2nnc(-c3ccccc3Cl)o2)cc([N+](=O)[O-])c1
MIC99 [1]: 0.125 µM (≈ 0.0491 µg/mL) | MIC99 (Mycobacterium avium [2]): 16 µM (≈ 6.28 µg/mL) | MIC99 (Mycobacterium kansasii [3]): 0.25 µM (≈ 0.0982 µg/mL) | MIC99 (Mycobacterium kansasii [4]): 0.5 µM (≈ 0.196 µg/mL) | MIC99 [5]: 0.125 µM (≈ 0.0491 µg/mL) | MIC99 (Mycobacterium avium [6]): 32 µM (≈ 12.6 µg/mL) | MIC99 (Mycobacterium kansasii [7]): 0.5 µM (≈ 0.196 µg/mL) | MIC99 (Mycobacterium kansasii [8]): 1 µM (≈ 0.393 µg/mL) | MIC99 (Mycobacterium kansasii [9]): 0.125 µM (≈ 0.0491 µg/mL) | MIC99 (Mycobacterium kansasii [10]): 0.125 µM (≈ 0.0491 µg/mL)

Cc1cc(C)cc(-c2nnc(SCc3cc([N+](=O)[O-])cc([N+](=O)[O-])c3)o2)c1
MIC99 [1]: 0.06 µM (≈ 0.0232 µg/mL) | MIC99 (Mycobacterium avium [2]): > 32 µM | MIC99 (Mycobacterium kansasii [3]): 0.5 µM (≈ 0.193 µg/mL) | MIC99 (Mycobacterium kansasii [4]): 1 µM (≈ 0.386 µg/mL) | MIC99 [5]: 0.06 µM (≈ 0.0232 µg/mL) | MIC99 (Mycobacterium avium [6]): > 32 µM | MIC99 (Mycobacterium kansasii [7]): 1 µM (≈ 0.386 µg/mL) | MIC99 (Mycobacterium kansasii [8]): 2 µM (≈ 0.773 µg/mL) | MIC99 (Mycobacterium kansasii [9]): 0.25 µM (≈ 0.0966 µg/mL) | MIC99 (Mycobacterium kansasii [10]): 0.5 µM (≈ 0.193 µg/mL)

O=[N+]([O-])c1cc(CSc2nnc(-c3ccncc3)s2)cc([N+](=O)[O-])c1
MIC99 [1]: 0.125 µM (≈ 0.0469 µg/mL) | MIC99 (Mycobacterium avium [2]): > 125 µM | MIC99 (Mycobacterium kansasii [3]): 1 µM (≈ 0.375 µg/mL) | MIC99 (Mycobacterium kansasii [4]): 1 µM (≈ 0.375 µg/mL) | MIC99 [5]: 0.125 µM (≈ 0.0469 µg/mL) | MIC99 (Mycobacterium avium [6]): > 125 µM | MIC99 (Mycobacterium kansasii [7]): 1 µM (≈ 0.375 µg/mL) | MIC99 (Mycobacterium kansasii [8]): 1 µM (≈ 0.375 µg/mL) | MIC99 (Mycobacterium kansasii [9]): 0.5 µM (≈ 0.188 µg/mL) | MIC99 (Mycobacterium kansasii [10]): 0.5 µM (≈ 0.188 µg/mL)

O=[N+]([O-])c1ccc(CSc2nnc(-c3ccc([N+](=O)[O-])cc3)o2)cc1
MIC99 [1]: 250 µM (≈ 89.6 µg/mL) | MIC99 (Mycobacterium avium [2]): 250 µM (≈ 89.6 µg/mL) | MIC99 (Mycobacterium kansasii [3]): 250 µM (≈ 89.6 µg/mL) | MIC99 (Mycobacterium kansasii [4]): 62 µM (≈ 22.2 µg/mL) | MIC99 [5]: 250 µM (≈ 89.6 µg/mL) | MIC99 (Mycobacterium avium [6]): 250 µM (≈ 89.6 µg/mL) | MIC99 (Mycobacterium kansasii [7]): 250 µM (≈ 89.6 µg/mL) | MIC99 (Mycobacterium kansasii [8]): 62 µM (≈ 22.2 µg/mL) | MIC99 (Mycobacterium kansasii [9]): 250 µM (≈ 89.6 µg/mL) | MIC99 (Mycobacterium kansasii [10]): 62 µM (≈ 22.2 µg/mL)

Nc1cc(CSc2nnc(-c3ccc([N+](=O)[O-])cc3)s2)cc([N+](=O)[O-])c1
MIC99 [1]: 125 µM (≈ 48.7 µg/mL) | MIC99 (Mycobacterium avium [2]): 250 µM (≈ 97.4 µg/mL) | MIC99 (Mycobacterium kansasii [3]): 250 µM (≈ 97.4 µg/mL) | MIC99 (Mycobacterium kansasii [4]): 250 µM (≈ 97.4 µg/mL) | MIC99 [5]: 125 µM (≈ 48.7 µg/mL) | MIC99 (Mycobacterium avium [6]): 250 µM (≈ 97.4 µg/mL) | MIC99 (Mycobacterium kansasii [7]): 250 µM (≈ 97.4 µg/mL) | MIC99 (Mycobacterium kansasii [8]): 250 µM (≈ 97.4 µg/mL) | MIC99 (Mycobacterium kansasii [9]): 250 µM (≈ 97.4 µg/mL) | MIC99 (Mycobacterium kansasii [10]): 250 µM (≈ 97.4 µg/mL)

O=[N+]([O-])c1cc(CSc2nnc(-c3ccccc3Cl)s2)cc([N+](=O)[O-])c1
MIC99 [1]: 0.125 µM (≈ 0.0511 µg/mL) | MIC99 (Mycobacterium avium [2]): 16 µM (≈ 6.54 µg/mL) | MIC99 (Mycobacterium kansasii [3]): 1 µM (≈ 0.409 µg/mL) | MIC99 (Mycobacterium kansasii [4]): 1 µM (≈ 0.409 µg/mL) | MIC99 [5]: 0.125 µM (≈ 0.0511 µg/mL) | MIC99 (Mycobacterium avium [6]): > 16 µM | MIC99 (Mycobacterium kansasii [7]): 1 µM (≈ 0.409 µg/mL) | MIC99 (Mycobacterium kansasii [8]): 1 µM (≈ 0.409 µg/mL) | MIC99 (Mycobacterium kansasii [9]): 0.5 µM (≈ 0.204 µg/mL) | MIC99 (Mycobacterium kansasii [10]): 0.5 µM (≈ 0.204 µg/mL)

O=[N+]([O-])c1cc(CSc2nnc(-c3ccncc3)o2)cc([N+](=O)[O-])c1
MIC99 [1]: 0.5 µM (≈ 0.18 µg/mL) | MIC99 (Mycobacterium avium [2]): 62 µM (≈ 22.3 µg/mL) | MIC99 (Mycobacterium kansasii [3]): 2 µM (≈ 0.719 µg/mL) | MIC99 (Mycobacterium kansasii [4]): 2 µM (≈ 0.719 µg/mL) | MIC99 [5]: 0.5 µM (≈ 0.18 µg/mL) | MIC99 (Mycobacterium avium [6]): 62 µM (≈ 22.3 µg/mL) | MIC99 (Mycobacterium kansasii [7]): 2 µM (≈ 0.719 µg/mL) | MIC99 (Mycobacterium kansasii [8]): 4 µM (≈ 1.44 µg/mL) | MIC99 (Mycobacterium kansasii [9]): 1 µM (≈ 0.359 µg/mL) | MIC99 (Mycobacterium kansasii [10]): 2 µM (≈ 0.719 µg/mL)

O=[N+]([O-])c1cc(CSc2nnc(-c3ccc(Cl)cc3)o2)cc(C(F)(F)F)c1
MIC99 [1]: > 32 µM | MIC99 (Mycobacterium avium [2]): > 500 µM | MIC99 (Mycobacterium kansasii [3]): > 32 µM | MIC99 (Mycobacterium kansasii [4]): > 32 µM | MIC99 [5]: > 32 µM | MIC99 (Mycobacterium avium [6]): > 500 µM | MIC99 (Mycobacterium kansasii [7]): > 32 µM | MIC99 (Mycobacterium kansasii [8]): > 32 µM | MIC99 (Mycobacterium kansasii [9]): > 32 µM | MIC99 (Mycobacterium kansasii [10]): > 32 µM

NNC(=O)c1ccncc1 [ISONIAZID]
MIC99 (Mycobacterium avium [2]): > 250 µM | MIC99 (Mycobacterium kansasii [3]): > 250 µM | MIC99 (Mycobacterium kansasii [4]): 4 µM (≈ 0.549 µg/mL) | MIC99 (Mycobacterium avium [6]): > 250 µM | MIC99 (Mycobacterium kansasii [7]): > 250 µM | MIC99 (Mycobacterium kansasii [8]): 4 µM (≈ 0.549 µg/mL) | MIC99 (Mycobacterium kansasii [9]): > 250 µM | MIC99 (Mycobacterium kansasii [10]): 4 µM (≈ 0.549 µg/mL)

O=[N+]([O-])c1cc(CSc2nnc(C3CCCCC3)o2)cc([N+](=O)[O-])c1
MIC99 [1]: ≤ 0.03 µM | MIC99 [5]: ≤ 0.03 µM

O=[N+]([O-])c1cc(CSc2nnc(-c3ccc(Cl)cc3)s2)cc(C(F)(F)F)c1
MIC99 [1]: > 32 µM | MIC99 (Mycobacterium avium [2]): > 500 µM | MIC99 (Mycobacterium kansasii [3]): > 32 µM | MIC99 (Mycobacterium kansasii [4]): > 32 µM | MIC99 [5]: > 32 µM | MIC99 (Mycobacterium avium [6]): > 500 µM | MIC99 (Mycobacterium kansasii [7]): > 32 µM | MIC99 (Mycobacterium kansasii [8]): > 32 µM | MIC99 (Mycobacterium kansasii [9]): > 32 µM | MIC99 (Mycobacterium kansasii [10]): > 32 µM
